Test results from patent US20230391845A1, “GLP-1, GIP AND GLUCAGON RECEPTOR TRIPLE AGONISTS” (priority 2020, published 2023).
*1 amine or outer side, *2 acyl side, *3 side chain or, on linkers, in order; H or OH if unused. Where a SMILES comes first, the peptide text is derived from it. Side-chain parts run from the residue outwards. [ ]: non-standard residue; d: D form. The star is where a group is joined. X1 = O=C(O)CCCCCCCCCCCCCCCCCCC(=O)NCC1CCC(C(=O)*)CC1; C20 diacid = O=C(O)CCCCCCCCCCCCCCCCCCC(=O)*; C18 diacid = O=C(O)CCCCCCCCCCCCCCCCC(=O)*; γGlu = O=C(O)[C@H](CCC(=O)[*:2])N[*:1]; εLys = N[C@@H](CCCCN[*:1])C(=O)[*:2]; AEEA = NCCOCCOCC(=O)O; Aib = CC(C)(N)C(=O)O

Assays:
[1] = Pharmacokinetic study in minipigs, i.v. administration; set-up: species or system Göttingen minipigs; settings: minipig, in vivo, iv
Protocol: The purpose of this example is to determine the half-life in vivo of the triple agonists as described herein after i.v. administration to minipigs, i.e. the prolongation of their time in the body and thereby their time of action. This is done in a pharmacokinetic (PK) study, where the terminal half-life of the triple agonist in question is determined. By terminal half-life is generally meant the period of time it takes to halve a certain plasma concentration, measured after the initial distribution phase.
Female Göttingen minipigs were obtained from Ellegaard Göttingen Minipigs (Dalmose, Denmark) approximately 7-14 months of age and weighing from approximately 16-35 kg were used in the studies. The minipigs were housed individually and fed restrictedly once daily with SDS minipig diet (Special Diets Services, Essex, UK).
After at 3 weeks of acclimatisation two permanent central venous catheters were implanted in vena cava caudalis in each animal. The animals were allowed 1 week recovery after the surgery, and were then used for repeated pharmacokinetic studies with a suitable wash-out period between successive dosings.
The animals were fasted for approximately 18 hours before dosing and from 0 to 4 hours after dosing, but had adlibitum access to water during the whole period.
Intravenous injections (the volume corresponding to usually 1.5-2 nmol/kg, for example 0.1 mL/kg) of the triple agonists were given through one catheter, and blood was sampled at predefined time points for up to 14 days post dosing (preferably through the other catheter). Blood samples (for example 0.8 mL) were collected in 8 mM EDTA buffer and then centrifuged at 4° C. and 1942 g for 10 minutes.
Plasma was pipetted into Micronic tubes on dry ice and kept at −20° C. until analysed for plasma concentration of the triple agonists using ELISA, or a similar antibody-based assay, or LCMS. Individual plasma concentration-time profiles were analysed by a non-compartmental model in Phoenix WinNonLin ver. 6.4. (Pharsight Inc., Mountain View, CA, USA), and the resulting terminal half-lives (harmonic mean) determined.

[2] = target: T1, human GLP-1 receptor (Homo sapiens, UniProt P43220); assay: In vitro functional potency (CRE luciferase; whole cells), human GLP-1R; type: cell-based; settings: BHK CRE luc2P hGLP-1R whole cells; Table 2; read-out: hGLP-1R CRE Luc EC50
T1 construct: expressed in transfected cells; host or cells: BHK cells (parent line BHKTS13) containing CRE luciferase
T1 sequence (P43220 24-463): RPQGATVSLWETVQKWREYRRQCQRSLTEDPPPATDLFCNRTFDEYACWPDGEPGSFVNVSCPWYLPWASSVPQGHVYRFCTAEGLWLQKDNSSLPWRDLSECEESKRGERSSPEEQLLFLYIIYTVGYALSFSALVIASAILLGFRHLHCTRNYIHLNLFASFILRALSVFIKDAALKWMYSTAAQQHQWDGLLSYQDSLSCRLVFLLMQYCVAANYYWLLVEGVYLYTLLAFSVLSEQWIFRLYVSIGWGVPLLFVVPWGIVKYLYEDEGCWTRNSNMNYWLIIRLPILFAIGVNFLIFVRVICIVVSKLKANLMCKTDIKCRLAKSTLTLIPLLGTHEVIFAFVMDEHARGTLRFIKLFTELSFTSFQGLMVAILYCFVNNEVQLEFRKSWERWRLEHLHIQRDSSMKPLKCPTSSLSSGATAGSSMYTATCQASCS

| Structure (SMILES) | half-life ([1]; female, Göttingen) [h] | EC50 [2] [pM] | other results |
| --- | --- | --- | --- |
| CC(C)C[C@H](NC(=O)[C@H](CC(C)C)NC(=O)[C@H](Cc1c[nH]c2ccccc12)NC(=O)[C@H](CCC(N)=O)NC(=O)[C@@H](NC(=O)[C@H](Cc1ccccc1)NC(=O)[C@H](CCC(=O)O)NC(=O)C(C)(C)NC(=O)[C@H](C)NC(=O)[C@H](C)NC(=O)[C@H](CCC(N)=O)NC(=O)[C@H](CCCCNC(=O)[C@@H](N)CCCCNC(=O)[C@@H](N)CCCCNC(=O)CC[C@H](NC(=O)CCCCCCCCCCCCCCCCC(=O)O)C(=O)O)NC(=O)[C@H](CCC(=O)O)NC(=O)[C@H](CC(C)C)NC(=O)[C@H](Cc1ccc(O)cc1)NC(=O)[C@H](Cc1ccc(O)cc1)NC(=O)[C@H](CO)NC(=O)[C@H](Cc1ccc(O)cc1)NC(=O)[C@H](CC(=O)O)NC(=O)[C@H](CO)NC(=O)[C@@H](NC(=O)[C@H](Cc1ccccc1)NC(=O)[C@@H](NC(=O)CNC(=O)[C@H](Cc1c[nH]cn1)NC(=O)C(C)(C)NC(=O)[C@@H](N)Cc1c[nH]cn1)[C@@H](C)O)[C@@H](C)O)C(C)C)C(=O)N[C@@H](CCC(=O)O)C(=O)NCC(=O)NCC(=O)N1CCC[C@H]1C(=O)N[C@@H](CO)C(=O)N[C@@H](CO)C(=O)NCC(=O)N[C@@H](C)C(=O)N1CCC[C@H]1C(=O)N1CCC[C@H]1C(=O)N1CCC[C@H]1C(=O)N[C@@H](CO)C(N)=O [Compound No. 32] (H-H[Aib]HGTFTSDYSYYLEK([εLys-εLys-γGlu-C18 diacid])QAA[Aib]EFVQWLLEGGPSSGAPPPS-NH2) | 52 | – | – |
| CC(C)C[C@H](NC(=O)[C@H](CC(C)C)NC(=O)[C@H](Cc1c[nH]c2ccccc12)NC(=O)[C@H](CCC(N)=O)NC(=O)[C@@H](NC(=O)[C@H](Cc1ccccc1)NC(=O)[C@H](CCC(=O)O)NC(=O)C(C)(C)NC(=O)[C@H](C)NC(=O)[C@H](C)NC(=O)[C@H](CCC(N)=O)NC(=O)[C@H](CCCCNC(=O)[C@@H](N)CCCCNC(=O)[C@@H](N)CCCCNC(=O)CC[C@H](NC(=O)C1CCC(CNC(=O)CCCCCCCCCCCCCCCCCCC(=O)O)CC1)C(=O)O)NC(=O)[C@H](CCC(=O)O)NC(=O)[C@H](CC(C)C)NC(=O)[C@H](Cc1ccc(O)cc1)NC(=O)[C@H](Cc1ccc(O)cc1)NC(=O)[C@H](CO)NC(=O)[C@H](Cc1ccc(O)cc1)NC(=O)[C@H](CC(=O)O)NC(=O)[C@H](CO)NC(=O)[C@@H](NC(=O)[C@H](Cc1ccccc1)NC(=O)[C@@H](NC(=O)CNC(=O)[C@H](Cc1c[nH]cn1)NC(=O)C(C)(C)NC(=O)[C@@H](N)Cc1c[nH]cn1)[C@@H](C)O)[C@@H](C)O)C(C)C)C(=O)N[C@@H](CCC(=O)O)C(=O)NCC(=O)NCC(=O)N1CCC[C@H]1C(=O)N[C@@H](CO)C(=O)N[C@@H](CO)C(=O)NCC(=O)N[C@@H](C)C(=O)N1CCC[C@H]1C(=O)N1CCC[C@H]1C(=O)N1CCC[C@H]1C(=O)N[C@@H](CO)C(N)=O (stereo partly drawn) [Compound No. 25] (H-H[Aib]HGTFTSDYSYYLEK([εLys-εLys-γGlu-X1])QAA[Aib]EFVQWLLEGGPSSGAPPPS-NH2; N-terminus assumed) | – | – | half-life [1]: 79 h |
| CC[C@H](C)[C@H](NC(=O)[C@H](CO)NC(=O)[C@H](Cc1ccc(O)cc1)NC(=O)[C@H](CC(=O)O)NC(=O)[C@H](CO)NC(=O)[C@@H](NC(=O)[C@H](Cc1ccccc1)NC(=O)[C@@H](NC(=O)CNC(=O)[C@H](CCC(N)=O)NC(=O)C(C)(C)NC(=O)[C@@H](N)Cc1ccc(O)cc1)[C@@H](C)O)[C@@H](C)O)C(=O)N[C@@H](Cc1ccc(O)cc1)C(=O)N[C@@H](CC(C)C)C(=O)N[C@@H](CC(=O)O)C(=O)N[C@@H](CCCCN)C(=O)N[C@@H](CCC(N)=O)C(=O)N[C@@H](C)C(=O)N[C@@H](C)C(=O)NC(C)(C)C(=O)N[C@@H](CCCCNC(=O)COCCOCCNC(=O)COCCOCCNC(=O)CC[C@H](NC(=O)CCCCCCCCCCCCCCCCCCC(=O)O)C(=O)O)C(=O)N[C@@H](Cc1ccccc1)C(=O)N[C@H](C(=O)N[C@@H](CCC(N)=O)C(=O)N[C@@H](Cc1c[nH]c2ccccc12)C(=O)N[C@@H](CC(C)C)C(=O)N[C@@H](CC(C)C)C(=O)N[C@@H](CCC(=O)O)C(=O)NCC(=O)NCC(=O)N1CCC[C@H]1C(=O)N[C@@H](CO)C(=O)N[C@@H](CO)C(=O)NCC(=O)N[C@@H](C)C(=O)N1CCC[C@H]1C(=O)N1CCC[C@H]1C(=O)N1CCC[C@H]1C(=O)N[C@@H](CO)C(N)=O)C(C)C [Compound No. 7] (H-Y[Aib]QGTFTSDYSIYLDKQAA[Aib]K([AEEA-AEEA-γGlu-C20 diacid])FVQWLLEGGPSSGAPPPS-NH2; N-terminus assumed) | 79 | – | – |
| CC[C@H](C)[C@H](NC(=O)[C@H](CO)NC(=O)[C@H](Cc1ccc(O)cc1)NC(=O)[C@H](CC(=O)O)NC(=O)[C@H](CO)NC(=O)[C@@H](NC(=O)[C@H](Cc1ccccc1)NC(=O)[C@@H](NC(=O)CNC(=O)[C@H](CCC(N)=O)NC(=O)C(C)(C)NC(=O)[C@@H](N)Cc1ccc(O)cc1)[C@@H](C)O)[C@@H](C)O)C(=O)N[C@@H](Cc1ccc(O)cc1)C(=O)N[C@@H](CC(C)C)C(=O)N[C@@H](CCC(=O)O)C(=O)N[C@@H](CCCCN)C(=O)N[C@@H](CCC(N)=O)C(=O)N[C@@H](C)C(=O)N[C@@H](C)C(=O)NC(C)(C)C(=O)N[C@@H](CCCCNC(=O)COCCOCCNC(=O)COCCOCCNC(=O)CC[C@H](NC(=O)C1CCC(CNC(=O)CCCCCCCCCCCCCCCCCCC(=O)O)CC1)C(=O)O)C(=O)N[C@@H](Cc1ccccc1)C(=O)N[C@H](C(=O)N[C@@H](CCC(N)=O)C(=O)N[C@@H](Cc1c[nH]c2ccccc12)C(=O)N[C@@H](CC(C)C)C(=O)N[C@@H](CC(C)C)C(=O)N[C@@H](CCC(=O)O)C(=O)NCC(=O)NCC(=O)N1CCC[C@H]1C(=O)N[C@@H](CO)C(=O)N[C@@H](CO)C(=O)NCC(=O)N[C@@H](C)C(=O)N1CCC[C@H]1C(=O)N1CCC[C@H]1C(=O)N1CCC[C@H]1C(=O)N[C@@H](CO)C(N)=O)C(C)C (stereo partly drawn) [Compound No. 11] (H-Y[Aib]QGTFTSDYSIYLEKQAA[Aib]K([AEEA-AEEA-γGlu-X1])FVQWLLEGGPSSGAPPPS-NH2; N-terminus assumed) | – | 4.3 | – |
| CC[C@H](C)[C@H](NC(=O)[C@H](CO)NC(=O)[C@H](Cc1ccc(O)cc1)NC(=O)[C@H](CC(=O)O)NC(=O)[C@H](CO)NC(=O)[C@@H](NC(=O)[C@H](Cc1ccccc1)NC(=O)[C@@H](NC(=O)CNC(=O)[C@H](Cc1c[nH]cn1)NC(=O)C(C)(C)NC(=O)[C@@H](N)Cc1c[nH]cn1)[C@@H](C)O)[C@@H](C)O)C(=O)N[C@@H](Cc1ccc(O)cc1)C(=O)N[C@@H](CC(C)C)C(=O)N[C@@H](CCC(=O)O)C(=O)N[C@@H](CCCCNC(=O)[C@@H](N)CCCCNC(=O)[C@@H](N)CCCCNC(=O)CC[C@H](NC(=O)CCCCCCCCCCCCCCCCCCC(=O)O)C(=O)O)C(=O)N[C@@H](CCCNC(=N)N)C(=O)N[C@@H](C)C(=O)N[C@@H](C)C(=O)NC(C)(C)C(=O)N[C@@H](CCC(=O)O)C(=O)N[C@@H](Cc1ccccc1)C(=O)N[C@H](C(=O)N[C@@H](CCC(N)=O)C(=O)N[C@@H](Cc1c[nH]c2ccccc12)C(=O)N[C@@H](CC(C)C)C(=O)N[C@@H](CC(C)C)C(=O)N[C@@H](CCC(=O)O)C(=O)NCC(=O)NCC(=O)N1CCC[C@H]1C(=O)N[C@@H](CO)C(=O)N[C@@H](CO)C(=O)NCC(=O)N[C@@H](C)C(=O)N1CCC[C@H]1C(=O)N1CCC[C@H]1C(=O)N1CCC[C@H]1C(=O)N[C@@H](CO)C(N)=O)C(C)C [Compound No. 37] (H-H[Aib]HGTFTSDYSIYLEK([εLys-εLys-γGlu-C20 diacid])RAA[Aib]EFVQWLLEGGPSSGAPPPS-NH2; N-terminus assumed) | – | 1.8 | – |
| CC[C@H](C)[C@H](NC(=O)[C@H](CO)NC(=O)[C@H](Cc1ccc(O)cc1)NC(=O)[C@H](CC(=O)O)NC(=O)[C@H](CO)NC(=O)[C@@H](NC(=O)[C@H](Cc1ccccc1)NC(=O)[C@@H](NC(=O)CNC(=O)[C@H](Cc1c[nH]cn1)NC(=O)C(C)(C)NC(=O)[C@@H](N)Cc1c[nH]cn1)[C@@H](C)O)[C@@H](C)O)C(=O)N[C@@H](CC(C)C)C(=O)N[C@@H](CC(C)C)C(=O)N[C@@H](CCC(=O)O)C(=O)N[C@@H](CCCCNC(=O)[C@@H](N)CCCCNC(=O)[C@@H](N)CCCCNC(=O)CC[C@H](NC(=O)CCCCCCCCCCCCCCCCCCC(=O)O)C(=O)O)C(=O)N[C@@H](CCC(N)=O)C(=O)N[C@@H](C)C(=O)N[C@@H](C)C(=O)N[C@@H](CCCNC(=N)N)C(=O)N[C@@H](CCC(=O)O)C(=O)N[C@@H](Cc1ccccc1)C(=O)N[C@H](C(=O)N[C@@H](CCC(N)=O)C(=O)N[C@@H](Cc1c[nH]c2ccccc12)C(=O)N[C@@H](CC(C)C)C(=O)N[C@@H](CC(C)C)C(=O)N[C@@H](CCC(=O)O)C(=O)NCC(=O)NCC(=O)N1CCC[C@H]1C(=O)N[C@@H](CO)C(=O)N[C@@H](CO)C(=O)NCC(=O)N[C@@H](C)C(=O)N1CCC[C@H]1C(=O)N1CCC[C@H]1C(=O)N1CCC[C@H]1C(=O)N[C@@H](CO)C(=O)O)C(C)C [Compound No. 55] (H-H[Aib]HGTFTSDYSILLEK([εLys-εLys-γGlu-C20 diacid])QAAREFVQWLLEGGPSSGAPPPS-OH; N-terminus assumed) | – | 2 | – |
